From patent US20070142356A1, “Association of a sinus node If curent inhibitor and a calcium inhibitor, and pharmaceutical compositions containing it” (LES LABORATOIRES SERVIER, priority 2005, published 2007)

System: patients being treated with dihydropyridine type calcium antagonists who still complained of painful angina pectoris attacks
Assay: Clinical studies 019 and 021: angina attacks in patients on dihydropyridines given concomitant ivabradine
Type: in vivo
Conditions: for Change in the number of angina pectoris attacks, %: after 1 year of ivabradine versus inclusion; for Number of angina pectoris attacks (per week), after treatment: patients on dihydropyridines on inclusion, ivabradine for 1 year
Excerpt: Two clinical studies carried out in patients being treated with dihydropyridine type calcium antagonists who still complained of painful angina pectoris attacks (despite the calcium antagonist) have shown that concomitant treatment with ivabradine makes it possible to reduce these attacks very substantially (by about 60%).

SMILES: COc1cc2c(cc1OC)CC(=O)N(CCCN(C)C[C@H]1Cc3cc(OC)c(OC)cc31)CC2 [ivabradine, 3-{3-[{[(7S)-3,4-dimethoxy-bicyclo[4.2.0]octa-1,3,5-trien-7-yl]methyl}(methyl)amino]propyl}-7,8-dimethoxy-1,3,4,5-tetrahydro-2H-3-benzazepin-2-one]
- Change in the number of angina pectoris attacks, % (Study 019, n = 27): −61.4%
- Number of angina pectoris attacks (per week), after treatment (Study 019, n = 27): 0.7 ± 1.3 per week
- Change in the number of angina pectoris attacks, % (Study 021, n = 114): −58.9%
- Number of angina pectoris attacks (per week), after treatment (Study 021, n = 114): 0.9 ± 2.9 per week
- Reduction of painful angina pectoris attacks (two clinical studies, ivabradine concomitant with dihydropyridine calcium antagonist): about 60%
